Tests used:
[1] = molecular target: Serine/threonine-protein kinase 24 (Homo sapiens) (UniProt Q9Y6E0)
[2] = molecular target: Tyrosine-protein kinase ABL1 (Homo sapiens) (UniProt P00519)
[3] = molecular target: Serine/threonine-protein kinase PLK2 (Homo sapiens) (UniProt Q9NYY3)
[4] = molecular target: Cyclin-dependent kinase 3 (Homo sapiens) (UniProt Q00526)
[5] = molecular target: T1, Megakaryocyte-associated tyrosine-protein kinase (Homo sapiens) (UniProt P42679)
T1 sequence (whole entry): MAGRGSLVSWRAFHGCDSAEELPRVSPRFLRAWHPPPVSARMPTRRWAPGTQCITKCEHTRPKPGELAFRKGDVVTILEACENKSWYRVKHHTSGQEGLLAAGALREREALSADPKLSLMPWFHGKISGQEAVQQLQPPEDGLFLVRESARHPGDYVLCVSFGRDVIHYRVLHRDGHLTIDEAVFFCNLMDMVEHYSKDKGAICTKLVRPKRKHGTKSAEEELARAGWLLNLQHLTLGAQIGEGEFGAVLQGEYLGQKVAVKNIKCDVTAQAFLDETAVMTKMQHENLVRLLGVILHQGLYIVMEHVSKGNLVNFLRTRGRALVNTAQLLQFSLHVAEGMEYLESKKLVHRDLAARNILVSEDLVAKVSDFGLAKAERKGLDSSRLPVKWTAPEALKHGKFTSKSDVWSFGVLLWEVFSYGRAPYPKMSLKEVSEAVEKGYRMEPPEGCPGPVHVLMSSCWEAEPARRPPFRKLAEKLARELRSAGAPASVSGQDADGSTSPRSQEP

[6] = molecular target: Serine/threonine-protein kinase Chk2 (Homo sapiens) (UniProt O96017)
[7] = molecular target: Serine/threonine-protein kinase tousled-like 1 (Homo sapiens) (UniProt Q9UKI8)
[8] = molecular target: Macrophage colony-stimulating factor 1 receptor (Homo sapiens) (UniProt P07333)
[9] = molecular target: T2, Mitogen-activated protein kinase kinase kinase 5 (Homo sapiens) (UniProt Q99683)
T2 sequence (whole entry): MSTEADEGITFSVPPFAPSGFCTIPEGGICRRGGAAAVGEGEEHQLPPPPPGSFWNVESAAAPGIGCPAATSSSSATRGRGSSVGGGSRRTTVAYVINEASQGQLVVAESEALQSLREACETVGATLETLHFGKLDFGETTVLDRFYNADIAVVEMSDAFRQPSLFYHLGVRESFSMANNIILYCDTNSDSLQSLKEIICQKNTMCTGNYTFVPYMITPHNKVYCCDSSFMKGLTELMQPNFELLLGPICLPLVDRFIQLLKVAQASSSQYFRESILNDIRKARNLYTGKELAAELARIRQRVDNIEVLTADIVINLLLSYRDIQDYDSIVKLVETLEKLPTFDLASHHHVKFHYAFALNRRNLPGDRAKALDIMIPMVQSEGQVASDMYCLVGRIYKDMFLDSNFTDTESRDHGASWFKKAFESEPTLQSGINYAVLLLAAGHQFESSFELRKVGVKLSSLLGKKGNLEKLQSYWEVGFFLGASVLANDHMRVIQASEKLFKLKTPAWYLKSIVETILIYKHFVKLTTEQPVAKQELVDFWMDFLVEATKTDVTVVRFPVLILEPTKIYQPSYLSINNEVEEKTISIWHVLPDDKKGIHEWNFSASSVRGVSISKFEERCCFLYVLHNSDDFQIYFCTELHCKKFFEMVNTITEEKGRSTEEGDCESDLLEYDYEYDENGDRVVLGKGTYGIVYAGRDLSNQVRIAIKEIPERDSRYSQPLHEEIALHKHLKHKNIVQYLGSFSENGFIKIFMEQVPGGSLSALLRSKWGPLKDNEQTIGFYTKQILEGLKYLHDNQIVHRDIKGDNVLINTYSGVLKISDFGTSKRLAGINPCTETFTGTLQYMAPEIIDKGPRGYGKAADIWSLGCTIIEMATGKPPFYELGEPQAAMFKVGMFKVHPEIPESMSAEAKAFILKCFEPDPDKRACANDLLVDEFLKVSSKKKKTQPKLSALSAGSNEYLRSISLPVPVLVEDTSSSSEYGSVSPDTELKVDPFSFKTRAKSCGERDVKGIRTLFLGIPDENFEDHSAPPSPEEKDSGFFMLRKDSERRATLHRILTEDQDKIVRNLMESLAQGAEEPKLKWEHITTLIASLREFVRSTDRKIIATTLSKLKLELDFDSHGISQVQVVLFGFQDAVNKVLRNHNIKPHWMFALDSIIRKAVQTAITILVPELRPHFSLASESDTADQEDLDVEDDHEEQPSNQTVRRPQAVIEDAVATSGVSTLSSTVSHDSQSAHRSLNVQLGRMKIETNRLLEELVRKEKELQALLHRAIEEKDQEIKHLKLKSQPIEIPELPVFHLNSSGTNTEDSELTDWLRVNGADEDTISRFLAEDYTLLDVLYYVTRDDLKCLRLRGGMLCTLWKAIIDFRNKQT

[10] = molecular target: Serine/threonine-protein kinase RIO3 (Homo sapiens) (UniProt O14730)
[11] = molecular target: Phosphatidylinositol 4-phosphate 3-kinase C2 domain-containing subunit beta (Homo sapiens) (UniProt O00750)
[12] = molecular target: Ribosomal protein S6 kinase alpha-2 (Homo sapiens) (UniProt Q15349)
[13] = Compound concentration 100.0 nM
[14] = Compound concentration 1000.0 nM

Measured: residual activity

Sequence of Tyrosine-protein kinase ABL1 (Homo sapiens) (P00519 whole entry): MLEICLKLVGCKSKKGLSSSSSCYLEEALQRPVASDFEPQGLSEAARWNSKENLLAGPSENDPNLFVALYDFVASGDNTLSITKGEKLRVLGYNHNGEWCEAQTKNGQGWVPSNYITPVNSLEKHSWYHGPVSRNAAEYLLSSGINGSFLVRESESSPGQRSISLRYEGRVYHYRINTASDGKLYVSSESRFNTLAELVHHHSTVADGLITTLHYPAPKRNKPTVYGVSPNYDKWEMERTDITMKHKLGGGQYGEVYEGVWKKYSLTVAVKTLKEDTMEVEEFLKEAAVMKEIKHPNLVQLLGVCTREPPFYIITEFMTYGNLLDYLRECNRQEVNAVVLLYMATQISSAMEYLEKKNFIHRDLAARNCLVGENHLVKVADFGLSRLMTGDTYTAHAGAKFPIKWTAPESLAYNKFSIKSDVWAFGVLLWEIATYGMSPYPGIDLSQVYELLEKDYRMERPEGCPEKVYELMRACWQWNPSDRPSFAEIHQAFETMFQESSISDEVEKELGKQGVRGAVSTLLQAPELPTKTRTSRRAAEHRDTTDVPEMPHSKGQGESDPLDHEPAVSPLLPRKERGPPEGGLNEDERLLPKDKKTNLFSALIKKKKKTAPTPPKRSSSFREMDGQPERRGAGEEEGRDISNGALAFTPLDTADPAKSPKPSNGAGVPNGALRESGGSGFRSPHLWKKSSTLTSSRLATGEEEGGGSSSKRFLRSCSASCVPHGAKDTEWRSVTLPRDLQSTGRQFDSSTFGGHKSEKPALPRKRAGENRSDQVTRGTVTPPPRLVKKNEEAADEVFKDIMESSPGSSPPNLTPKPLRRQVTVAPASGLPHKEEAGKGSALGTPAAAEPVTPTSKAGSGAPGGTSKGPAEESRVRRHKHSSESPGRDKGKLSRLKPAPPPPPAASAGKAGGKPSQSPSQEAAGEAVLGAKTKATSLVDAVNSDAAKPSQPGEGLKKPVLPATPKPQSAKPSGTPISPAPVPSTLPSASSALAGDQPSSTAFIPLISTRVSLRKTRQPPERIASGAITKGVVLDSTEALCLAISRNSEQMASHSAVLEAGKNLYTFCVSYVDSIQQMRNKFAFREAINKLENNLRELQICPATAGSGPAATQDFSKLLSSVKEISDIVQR
Sequence of Serine/threonine-protein kinase RIO3 (Homo sapiens) (O14730 whole entry, the tested form may be a part): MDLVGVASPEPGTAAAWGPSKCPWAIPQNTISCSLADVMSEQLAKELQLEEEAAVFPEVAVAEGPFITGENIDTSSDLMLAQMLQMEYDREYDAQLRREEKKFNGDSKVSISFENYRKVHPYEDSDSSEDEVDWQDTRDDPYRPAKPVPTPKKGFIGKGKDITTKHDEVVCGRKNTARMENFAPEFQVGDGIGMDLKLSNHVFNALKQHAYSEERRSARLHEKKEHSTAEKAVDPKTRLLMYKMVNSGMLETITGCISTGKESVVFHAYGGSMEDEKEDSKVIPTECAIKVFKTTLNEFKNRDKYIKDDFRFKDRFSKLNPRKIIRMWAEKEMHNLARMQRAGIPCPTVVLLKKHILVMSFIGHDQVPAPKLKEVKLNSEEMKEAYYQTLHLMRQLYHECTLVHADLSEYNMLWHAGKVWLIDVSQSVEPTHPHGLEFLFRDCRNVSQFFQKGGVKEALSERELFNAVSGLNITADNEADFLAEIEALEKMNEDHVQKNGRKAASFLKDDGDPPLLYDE
Sequence of Macrophage colony-stimulating factor 1 receptor (Homo sapiens) (P07333 whole entry): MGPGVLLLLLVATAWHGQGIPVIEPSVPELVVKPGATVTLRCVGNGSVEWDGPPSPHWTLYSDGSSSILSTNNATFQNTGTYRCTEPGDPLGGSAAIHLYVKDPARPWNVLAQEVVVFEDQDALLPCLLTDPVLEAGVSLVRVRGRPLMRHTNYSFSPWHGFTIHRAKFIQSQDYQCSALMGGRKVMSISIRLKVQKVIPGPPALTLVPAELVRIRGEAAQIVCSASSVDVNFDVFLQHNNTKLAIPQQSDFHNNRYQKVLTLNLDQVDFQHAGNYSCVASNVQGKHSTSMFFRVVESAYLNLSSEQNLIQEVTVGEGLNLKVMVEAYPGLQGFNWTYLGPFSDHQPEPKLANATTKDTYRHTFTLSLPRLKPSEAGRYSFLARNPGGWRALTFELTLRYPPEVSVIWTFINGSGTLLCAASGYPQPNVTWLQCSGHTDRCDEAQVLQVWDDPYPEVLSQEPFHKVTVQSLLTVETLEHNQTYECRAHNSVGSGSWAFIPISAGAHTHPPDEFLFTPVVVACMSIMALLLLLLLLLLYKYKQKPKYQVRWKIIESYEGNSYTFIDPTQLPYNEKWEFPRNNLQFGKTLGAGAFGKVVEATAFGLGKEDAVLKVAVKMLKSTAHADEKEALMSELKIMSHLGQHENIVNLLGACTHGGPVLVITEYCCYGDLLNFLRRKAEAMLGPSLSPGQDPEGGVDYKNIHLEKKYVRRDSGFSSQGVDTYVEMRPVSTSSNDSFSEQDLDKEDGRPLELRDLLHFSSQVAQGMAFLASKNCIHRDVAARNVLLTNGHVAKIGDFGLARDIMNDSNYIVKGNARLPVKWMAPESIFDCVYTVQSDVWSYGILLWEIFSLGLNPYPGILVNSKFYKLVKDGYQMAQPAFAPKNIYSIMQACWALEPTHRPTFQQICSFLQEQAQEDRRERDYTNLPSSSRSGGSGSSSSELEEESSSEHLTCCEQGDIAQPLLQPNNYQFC
Sequence of Serine/threonine-protein kinase Chk2 (Homo sapiens) (O96017 whole entry): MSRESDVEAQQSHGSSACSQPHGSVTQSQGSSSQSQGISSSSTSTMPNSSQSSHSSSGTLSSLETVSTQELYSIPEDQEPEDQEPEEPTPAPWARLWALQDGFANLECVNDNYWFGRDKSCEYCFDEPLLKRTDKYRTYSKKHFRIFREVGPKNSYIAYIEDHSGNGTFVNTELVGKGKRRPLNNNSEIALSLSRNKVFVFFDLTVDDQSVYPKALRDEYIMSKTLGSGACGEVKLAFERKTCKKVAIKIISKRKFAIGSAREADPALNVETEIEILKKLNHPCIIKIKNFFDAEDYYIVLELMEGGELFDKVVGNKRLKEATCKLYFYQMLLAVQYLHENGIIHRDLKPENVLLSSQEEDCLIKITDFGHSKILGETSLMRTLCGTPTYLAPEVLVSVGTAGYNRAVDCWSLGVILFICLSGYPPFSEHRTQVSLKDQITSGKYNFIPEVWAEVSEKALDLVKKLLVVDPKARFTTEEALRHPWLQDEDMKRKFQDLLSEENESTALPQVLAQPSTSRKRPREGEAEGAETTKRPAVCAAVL
Sequence of Phosphatidylinositol 4-phosphate 3-kinase C2 domain-containing subunit beta (Homo sapiens) (O00750 whole entry, the tested form may be a part): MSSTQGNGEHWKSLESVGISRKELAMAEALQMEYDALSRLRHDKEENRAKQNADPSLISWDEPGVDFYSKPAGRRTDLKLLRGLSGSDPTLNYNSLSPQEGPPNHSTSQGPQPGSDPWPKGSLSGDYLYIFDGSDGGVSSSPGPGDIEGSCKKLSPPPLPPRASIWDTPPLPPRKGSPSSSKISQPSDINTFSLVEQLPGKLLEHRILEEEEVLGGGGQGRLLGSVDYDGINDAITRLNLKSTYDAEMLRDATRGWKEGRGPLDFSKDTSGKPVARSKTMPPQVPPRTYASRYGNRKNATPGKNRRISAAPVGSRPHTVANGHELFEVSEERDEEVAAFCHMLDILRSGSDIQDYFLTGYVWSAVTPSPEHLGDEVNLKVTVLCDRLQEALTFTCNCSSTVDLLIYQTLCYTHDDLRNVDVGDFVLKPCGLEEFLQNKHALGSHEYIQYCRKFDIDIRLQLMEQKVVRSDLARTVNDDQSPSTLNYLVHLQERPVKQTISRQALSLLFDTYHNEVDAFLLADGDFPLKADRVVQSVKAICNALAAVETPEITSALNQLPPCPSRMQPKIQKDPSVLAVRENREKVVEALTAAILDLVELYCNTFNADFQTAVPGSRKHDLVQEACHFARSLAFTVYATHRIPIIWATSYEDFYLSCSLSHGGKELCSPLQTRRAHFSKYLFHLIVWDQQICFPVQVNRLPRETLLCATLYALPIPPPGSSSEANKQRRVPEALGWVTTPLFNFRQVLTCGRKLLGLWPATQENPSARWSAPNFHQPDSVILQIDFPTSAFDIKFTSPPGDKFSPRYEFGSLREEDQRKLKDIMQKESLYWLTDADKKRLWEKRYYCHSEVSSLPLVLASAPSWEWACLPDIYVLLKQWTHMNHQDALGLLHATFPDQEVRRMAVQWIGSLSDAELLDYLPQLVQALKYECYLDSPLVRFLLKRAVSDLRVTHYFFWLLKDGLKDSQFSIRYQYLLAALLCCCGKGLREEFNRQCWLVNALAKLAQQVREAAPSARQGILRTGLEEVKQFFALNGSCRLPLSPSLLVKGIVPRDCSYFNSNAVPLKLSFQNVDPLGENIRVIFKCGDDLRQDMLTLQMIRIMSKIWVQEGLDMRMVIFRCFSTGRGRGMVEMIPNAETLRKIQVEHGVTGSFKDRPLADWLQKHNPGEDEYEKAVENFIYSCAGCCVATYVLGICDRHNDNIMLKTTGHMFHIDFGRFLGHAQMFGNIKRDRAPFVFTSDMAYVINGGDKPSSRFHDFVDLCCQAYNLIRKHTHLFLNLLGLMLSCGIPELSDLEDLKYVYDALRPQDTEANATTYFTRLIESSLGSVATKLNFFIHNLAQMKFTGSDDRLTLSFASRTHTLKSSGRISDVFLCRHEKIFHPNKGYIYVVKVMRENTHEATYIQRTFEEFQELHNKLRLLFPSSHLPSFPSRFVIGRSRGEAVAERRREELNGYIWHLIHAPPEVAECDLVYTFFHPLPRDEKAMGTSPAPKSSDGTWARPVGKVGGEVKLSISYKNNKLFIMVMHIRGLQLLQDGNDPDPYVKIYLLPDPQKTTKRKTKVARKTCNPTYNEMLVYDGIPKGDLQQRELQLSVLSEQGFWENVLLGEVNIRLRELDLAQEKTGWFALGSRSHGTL
Sequence of Cyclin-dependent kinase 3 (Homo sapiens) (Q00526 whole entry, looked up): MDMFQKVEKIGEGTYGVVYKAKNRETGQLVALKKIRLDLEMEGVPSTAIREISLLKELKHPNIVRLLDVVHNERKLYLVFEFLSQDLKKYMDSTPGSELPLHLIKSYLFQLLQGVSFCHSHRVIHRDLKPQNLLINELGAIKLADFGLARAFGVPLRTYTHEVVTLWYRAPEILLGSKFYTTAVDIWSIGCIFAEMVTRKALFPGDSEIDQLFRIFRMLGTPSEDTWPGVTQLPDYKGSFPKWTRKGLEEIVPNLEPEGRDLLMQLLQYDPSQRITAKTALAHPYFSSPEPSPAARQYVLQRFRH

C[C@@H]1CN(c2cc(-c3n[nH]c4ccc(OC5(C)CC5)cc34)ncn2)C[C@H](C)O1 [MLi-2]
inactive: [1]; [13] 96% | [2]; [13] 67% | [3]; [13] 76% | [4]; [13] 76% | [5]; [13] 94% | [6]; [13] 68% | [7]; [13] 94% | [8]; [13] 91% | [9]; [13] 88% | [10]; [13] 100% | [11]; [13] 66% | [12]; [13] 92%

C[C@@H]1CN(c2cc(-c3nn(C)c4ccc(OC5(C)CC5)cc34)ncn2)C[C@H](C)O1 [MLi-2-NC]
inactive: [1]; [14] 79% | [2]; [14] 79% | [3]; [14] 68% | [4]; [14] 98% | [5]; [14] 80% | [6]; [14] 97% | [7]; [14] 100% | [8]; [14] 100% | [9]; [14] 100% | [10]; [14] 100% | [11]; [14] 70% | [12]; [14] 88%
